Experimental data as given in patent US20100087457A1, “DOSAGES AND METHODS FOR THE TREATMENT OF CANCER” (Myriad Pharmaceuticals, Inc, priority 2007, published 2010).
Values joined by “and” are separate entries in the source; they are usually repeats but may differ in a detail not shown here. Identical values can stand only once. Counter-ions that a name gives are not always drawn.

Experiment: Phase I clinical trial: plasma concentrations after weekly intravenous infusion (pharmacokinetics)
Format: in vivo, human
Conditions: LLOQ 1 ng/mL; for Plasma Concentrations 2 HR: 2 hr after infusion; for Plasma Concentrations 4 HR: 4 hr after infusion; for Plasma Concentrations 6 HR: 6 hr after infusion; for Plasma Concentrations 12 HR: 12 hr after infusion; for Plasma Concentrations 24 HR: 24 hr after infusion; for Plasma Concentrations EOI: end of infusion; for Plasma Concentrations PREDOSE: Day 15 (third weekly dose)
Experimental: An open-label, dose-escalating, multiple-dose study to define the safety, tolerability and pharmacokinetics of weekly intravenous administration of (4-Methoxy-phenyl)-methyl-(2-methyl-quinazolin-4-yl)-amine hydrochloride was performed. A dosing schedule (each 4 week cycle) was performed for (4-Methoxy-phenyl)-methyl-(2-methyl-quinazolin-4-yl)-amine hydrochloride weekly for 3 weeks with no infusion on the fourth week of each cycle. Subjects with refractory solid tumors were enrolled in cohorts of 3. During Cycle 1, subjects were hospitalized during each infusion of (4-Methoxy-phenyl)-methyl-(2-methyl-quinazolin-4-yl)-amine hydrochloride and remained for observation and safety evaluation for approximately 24 hours following the end of the infusion. All subjects had continuous telemetry for 2 hours prior to infusion, for 1-2 hour infusion and for 3 hours after the end of the infusion. Any clinically significant electrocardiographic (ECG) wave form abnormality was recorded and prolongation of the monitoring period extended at the discretion of the principal investigator.
Blood samples were collected prior to dosing, at the end of the infusion, and 1, 2, 4, 6, 12, and 24 hours after the infusion. This sampling schedule occurred on Days 1 and 15 with administration of the first and third doses. Samples were collected into tubes containing EDTA and stored on ice until centrifuged. The plasma was frozen at approximately −20° C. in labeled, plastic tubes, or vials, and tightly capped. The samples were shipped to Myriad Pharmaceuticals, Inc. for analysis of (4-Methoxy-phenyl)-methyl-(2-methyl-quinazolin-4-yl)-amine hydrochloride. Pharmacokinetic analysis was conducted using WinNonlin 4.0®.

[1] = Day 1, 0.3 mg/m^2 i.v., infusion 1 hr
[2] = Day 1, 2.1 mg/m^2 i.v., infusion 1 hr, hydrochloride
[3] = Day 1, 2.7 mg/m^2 i.v., infusion 1 hr, hydrochloride
[4] = Day 1, 3.3 mg/m^2 i.v., infusion 2 hr, hydrochloride
[5] = Day 15, 0.3 mg/m^2 i.v., infusion 1 hr
[6] = Day 15, 1.0 mg/m^2 i.v., infusion 1 hr, hydrochloride
[7] = Day 15, 1.0 mg/m^2 i.v., infusion 1 hr
[8] = Day 15, 3.9 mg/m^2 i.v., infusion 2 hr, hydrochloride

Compound: COc1ccc(N(C)c2nc(C)nc3ccccc23)cc1 [(4-Methoxy-phenyl)-methyl-(2-methyl-quinazolin-4-yl)-amine hydrochloride]
- Plasma Concentrations 1 HR (Day 1, 0.3 mg/m^2 i.v., infusion 1 hr, 1 hr after infusion, hydrochloride): 1.17 ng/mL and 1.25 ng/mL
- Plasma Concentrations 2 HR [1]: BQL
- Plasma Concentrations 4 HR [1]: BQL
- Plasma Concentrations 6 HR [1]: BQL
- Plasma Concentrations 12 HR [1]: BQL
- Plasma Concentrations 24 HR [1]: BQL
- Plasma Concentrations EOI (Day 1, 0.3 mg/m^2 i.v., infusion 1 hr, hydrochloride): 1.77 ng/mL and 1.52 ng/mL and 2.43 ng/mL
- Plasma Concentrations 24 HR (Day 1, 1.5 mg/m^2 i.v., infusion 1 hr): BQL
- Plasma Concentrations 1 HR (Day 1, 2.1 mg/m^2 i.v., infusion 1 hr, 1 hr after infusion, hydrochloride): 5.53 ng/mL and 3.75 ng/mL
- Plasma Concentrations 2 HR [2]: 4.78 ng/mL and 3.94 ng/mL
- Plasma Concentrations 4 HR [2]: 2.69 ng/mL and 2.41 ng/mL
- Plasma Concentrations 6 HR [2]: 1.62 ng/mL and 1.18 ng/mL
- Plasma Concentrations 24 HR (Day 1, 2.1 mg/m^2 i.v., infusion 1 hr): BQL
- Plasma Concentrations 1 HR (Day 1, 2.7 mg/m^2 i.v., infusion 1 hr, 1 hr after infusion, hydrochloride): 4.69 ng/mL
- Plasma Concentrations 2 HR [3]: 4.03 ng/mL and 5.54 ng/mL
- Plasma Concentrations 4 HR [3]: 2.33 ng/mL and 3.91 ng/mL
- Plasma Concentrations 6 HR [3]: 1.68 ng/mL and 3.11 ng/mL
- Plasma Concentrations EOI [3]: 10.42 ng/mL and 11.10 ng/mL and 7.52 ng/mL
- Plasma Concentrations 2 HR [4]: 10.37 ng/mL and 8.81 ng/mL and 5.19 ng/mL
- Plasma Concentrations EOI [4]: 8.67 ng/mL and 11.97 ng/mL and 13.37 ng/mL and 16.77 ng/mL
- Plasma Concentrations PREDOSE (0.3 mg/m^2 i.v., infusion 1 hr): BQL
- Plasma Concentrations PREDOSE (0.6 mg/m^2 i.v., infusion 1 hr): BQL
- Plasma Concentrations PREDOSE (1.0 mg/m^2 i.v., infusion 1 hr): BQL
- Plasma Concentrations PREDOSE (1.5 mg/m^2 i.v., infusion 1 hr): BQL
- Plasma Concentrations PREDOSE (2.1 mg/m^2 i.v., infusion 1 hr): BQL
- Plasma Concentrations PREDOSE (2.7 mg/m^2 i.v., infusion 1 hr): BQL
- Plasma Concentrations PREDOSE (3.3 mg/m^2 i.v., infusion 2 hr): BQL
- Plasma Concentrations 2 HR [5]: BQL
- Plasma Concentrations 4 HR [5]: BQL
- Plasma Concentrations 6 HR [5]: BQL
- Plasma Concentrations 12 HR [5]: BQL
- Plasma Concentrations 24 HR [5]: BQL
- Plasma Concentrations 1 HR (Day 15, 1.0 mg/m^2 i.v., infusion 1 hr, 1 hr after infusion, hydrochloride): 2.51 ng/mL
- Plasma Concentrations 2 HR [6]: 2.15 ng/mL
- Plasma Concentrations 6 HR [7]: BQL
- Plasma Concentrations 12 HR [7]: BQL
- Plasma Concentrations 24 HR [7]: BQL
- Plasma Concentrations EOI [6]: 8.27 ng/mL and 7.82 ng/mL
- Plasma Concentrations 4 HR (Day 15, 1.5 mg/m^2 i.v., infusion 1 hr, hydrochloride): 1.60 ng/mL and 1.40 ng/mL and 1.30 ng/mL
- Plasma Concentrations 1 HR (Day 15, 2.1 mg/m^2 i.v., infusion 1 hr, 1 hr after infusion, hydrochloride): 6.21 ng/mL and 7.19 ng/mL
- Plasma Concentrations 4 HR (Day 15, 2.1 mg/m^2 i.v., infusion 1 hr, hydrochloride): 3.79 ng/mL
- Plasma Concentrations 1 HR (Day 15, 3.3 mg/m^2 i.v., infusion 1 hr, 1 hr after infusion, hydrochloride): 9.00 ng/mL and 17.56 ng/mL and 15.17 ng/mL
- Plasma Concentrations 1 HR (Day 15, 3.3 mg/m^2 i.v., infusion 2 hr, 1 hr after infusion, hydrochloride): 12.21 ng/mL and 6.40 ng/mL and 7.21 ng/mL
- Plasma Concentrations 2 HR (Day 15, 3.3 mg/m^2 i.v., infusion 2 hr, hydrochloride): 7.50 ng/mL and 5.52 ng/mL and 4.16 ng/mL
- Plasma Concentrations 1 HR (Day 15, 3.9 mg/m^2 i.v., infusion 2 hr, 1 hr after infusion, hydrochloride): 10.97 ng/mL and 12.15 ng/mL and 7.79 ng/mL and 9.85 ng/mL
- Plasma Concentrations 2 HR [8]: 8.48 ng/mL and 14.58 ng/mL and 7.36 ng/mL and 8.35 ng/mL
- Plasma Concentrations 4 HR [8]: 9.13 ng/mL and 7.84 ng/mL and 10.17 ng/mL and 6.81 ng/mL
- Plasma Concentrations 1 HR (Day 15, 4.5 mg/m^2 i.v., infusion 2 hr, 1 hr after infusion, hydrochloride): 17.94 ng/mL and 11.45 ng/mL and 10.03 ng/mL
- Plasma Concentrations 2 HR (Day 15, 4.5 mg/m^2 i.v., infusion 2 hr, hydrochloride): 14.46 ng/mL and 12.32 ng/mL and 8.11 ng/mL
- concentration at 1 h after end of infusion (human, plasma, iv, 0.3 mg/m^2, Day 1, 0.3 mg/m^2 i.v., infusion 1 hr, 1 hr after infusion): 1.03 ng/mL
